The test system of series [1] is NK cell line.
The subject of series [2] is NK92-GFP cells. Briefly: NK92-GFP infiltration into PDAC tumor spheroids. The class given is cell-based, human. The following applies: 10 uM Cpd60, 4 hours. The method, then:
PSC or PANC-1 spheroids were generated by plating 10,000 cells in a 0.1% agarose coated U-bottomed 96-well plate. PSC+PANC-1 spheroids were generated by plating 5,000 cells of each cell type. Aggregation was promoted by centrifuging the cells at 1000 rpm for 5 minutes. Cells incubated overnight at 37° C. The next day, 1,000 NK92-GFP cells were added per well and incubated for 4 hours at 37° C. Spheroids were imaged using the Olympus IX-71 Inverted Epifluorescent Microscope at 5×. Images were analyzed in FIJI. All images underwent identical contrast enhancement and background reduction. Then a line was drawn from spheroid edge to spheroid center and GFP intensity along that line was measured. Graphs of resulting data and statistical analysis were generated in Graphpad Prism 9.

In series [3] the target is T1, FAP (Homo sapiens, UniProt Q12884).
T1 construct: purchased R&D systems 3715-SE-010
T1 sequence (Q12884 whole entry): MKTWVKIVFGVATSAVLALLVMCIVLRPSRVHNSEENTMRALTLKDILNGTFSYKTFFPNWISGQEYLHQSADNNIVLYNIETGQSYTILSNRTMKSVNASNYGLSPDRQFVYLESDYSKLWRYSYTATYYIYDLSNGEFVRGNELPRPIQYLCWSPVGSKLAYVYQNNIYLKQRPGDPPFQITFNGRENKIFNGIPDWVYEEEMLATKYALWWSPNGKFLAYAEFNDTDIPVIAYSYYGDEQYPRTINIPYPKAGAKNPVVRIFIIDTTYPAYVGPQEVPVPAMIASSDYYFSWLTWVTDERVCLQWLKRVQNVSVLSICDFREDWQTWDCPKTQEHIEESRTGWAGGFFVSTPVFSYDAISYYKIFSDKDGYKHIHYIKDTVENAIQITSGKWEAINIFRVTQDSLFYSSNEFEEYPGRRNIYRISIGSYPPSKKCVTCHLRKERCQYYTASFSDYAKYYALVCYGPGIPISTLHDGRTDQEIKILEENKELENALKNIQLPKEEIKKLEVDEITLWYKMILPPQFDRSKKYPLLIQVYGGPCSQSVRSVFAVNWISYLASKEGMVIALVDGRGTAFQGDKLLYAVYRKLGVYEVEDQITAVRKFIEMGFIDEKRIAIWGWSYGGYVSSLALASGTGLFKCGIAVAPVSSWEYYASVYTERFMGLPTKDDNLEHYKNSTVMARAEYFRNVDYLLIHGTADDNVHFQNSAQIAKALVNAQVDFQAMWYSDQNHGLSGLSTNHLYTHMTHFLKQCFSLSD
Briefly: Fluorescent peptide dipeptidyl peptidase activity assay. The following applies: fluorescent peptide substrate. The class given is biochemical. Here is the method:
(§1) 100 mM stock of dipeptidyl peptidase substrate (Acetyl-Aka-Gly-Pro-AFC) (Anaspec, cat #AS-24126) was made by resuspending lyophilized substrate in DMSO. On the day of the assay, substrate stock was then diluted 1:1000 in activity assay buffer (50 mM Tris, 1 M NaCl, 1 mg/mL BSA, pH 7.5). A standard curve was generated using rFAP (R&D systems, cat #3715-SE-010) or rDPP4 (R&D systems, cat #9168-SE) and 50 uL of recombinant protein plus 50 uL of substrate was added to each well of a 96 Well Flat Clear Bottom White Polystyrene TC-Treated Microplates (Corning, cat #3903). The plate was incubated for 30 minutes at 37° C. then read on a PerkinElmer EnVision Multimode Plate Reader with 390-400 nm excitation and […] emission wavelengths. To test tumor lysates, 50-100 mg of snap frozen tumors were homogenized in 100-300 uL activity assay buffer using a Kimble Biomasher II closed system tissue grinder (DWK Life Sciences, cat #749625-0020). Protein concentration was determined using Bio-rad protein concentration DC Protein Assay Kit II (Bio-rad, cat #5000112). All samples were diluted to equal protein concentrations using activity assay buffer then added at 50 uL plus 50 uL substrate per well. Final concentration of FAP per well was calculated using the standard curve. Data were compiled and assessed for significance using GraphPad Prism 9 for an unpaired, two-tailed t-test.

The target in series [4] is T2, DPPIV (Homo sapiens, UniProt P27487).
T2 construct: purchased R&D systems 9168-SE
T2 sequence (P27487 whole entry): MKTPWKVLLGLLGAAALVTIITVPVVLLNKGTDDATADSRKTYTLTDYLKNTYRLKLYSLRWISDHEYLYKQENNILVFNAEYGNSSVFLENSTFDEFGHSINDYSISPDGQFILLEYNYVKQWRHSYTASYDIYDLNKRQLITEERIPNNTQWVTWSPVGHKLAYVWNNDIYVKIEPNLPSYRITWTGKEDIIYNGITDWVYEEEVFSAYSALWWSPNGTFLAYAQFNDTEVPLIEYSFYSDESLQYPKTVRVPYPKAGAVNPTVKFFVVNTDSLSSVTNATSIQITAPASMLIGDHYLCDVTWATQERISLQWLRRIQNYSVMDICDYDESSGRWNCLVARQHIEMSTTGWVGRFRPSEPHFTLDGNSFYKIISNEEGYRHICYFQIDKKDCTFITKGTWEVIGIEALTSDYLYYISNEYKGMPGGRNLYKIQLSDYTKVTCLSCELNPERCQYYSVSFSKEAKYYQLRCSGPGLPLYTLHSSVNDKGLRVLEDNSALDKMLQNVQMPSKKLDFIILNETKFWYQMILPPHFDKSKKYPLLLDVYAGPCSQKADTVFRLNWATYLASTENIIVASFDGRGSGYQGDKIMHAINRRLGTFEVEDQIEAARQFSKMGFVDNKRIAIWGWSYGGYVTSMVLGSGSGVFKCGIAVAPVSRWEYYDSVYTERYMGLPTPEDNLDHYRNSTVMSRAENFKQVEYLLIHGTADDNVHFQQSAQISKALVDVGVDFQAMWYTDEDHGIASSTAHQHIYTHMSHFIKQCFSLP
The series is described as above. The class given is biochemical. The following applies: fluorescent peptide substrate. Here is the method:
as §1

Series [5] relates to PANC-1 cell clusters. Briefly: NK cell lysis of PANC-1 clusters in 3D matrix (cleaved caspase 3). The class given is cell-based, human. The note with it: 10 uM Cpd60. The method, then: 3D clusters were generated, embedded and stained as previously described. In brief, clusters were generated by plating 1,000 cells per well into 96-well Nunclon Sphera low adhesion plates (Thermo Scientific, cat #174925) and incubated overnight at 37° C. The following day, 6 clusters were embedded into an ECM containing 2,000 NK cells and plated into one well of a Nunc Lab-Tek II 8-well chamber slide (ThermoScientific, cat #154534PK). The ECM mixture consisted of 20% growth factor reduced Matrigel (Corning, 10-12 mg/ml stock concentration, #354230) and 80% rat tail collagen type I at 3 mg/mL (gibco, A1048301). Cells were either imaged for the following 24 hours every 30 minutes using the Zeiss LSM800 scanning confocal microscope or allowed to incubate overnight at 37° C. After 24 hours, cells in matrix were fixed with 5.4% formalin for 1 hour, permeabilized with 0.5% Triton-X and blocked using goat serum. For invasion assays, NK-92-GFP cells were stained with anti-GFP (ThermoFisher, cat #A-11122). For the cell lysis assays clusters were stained using anti-cleaved caspase 3 (Cell Signaling, cat #9661). Hoechst 33342, phalloidin, and secondary antibodies labeled with Alexa Fluor 488 nm, 546 nm, 647 nm, or 680 nm (Invitrogen) were used.
3D clusters were generated, embedded and stained as previously described (34, 35). […]

Series [6] relates to FAP. The note with it: mouse, in vivo; cited from earlier work.

The structures appear in SMILES notation. “Also recorded” adds a separate entry of the source.

In the case of `N#C[C@@H]1CC(F)(F)CN1C(=O)CNC(=O)c1ccnc2ccccc12` [Cpd60], in series [1], the “effect on NK cell viability” value is listed as “no effect”. The “NK cell content in PANC-1 spheroids” value in series [2] (any region) was “no effect”. Besides, in series [2] (mid-edge and mid-center regions), the “NK cell content in PSC spheroids” value is on record as “significantly reduced”. In series [2] (mid-edge region), the “NK cell content in PSC+PANC-1 spheroids” value is on record as “significantly reduced”. In series [3], the “inhibition of FAP dipeptidyl peptidase activity” value was “inhibits FAP”. In addition, in series [4], the “inhibition of DPPIV dipeptidyl peptidase activity” value is recorded as “but not FAP's most closely related protein, DPPIV; also recorded: not DPPIV”. Moreover, the “PANC-1 cell apoptosis (cleaved caspase 3) in 3D cultures with NK92” value in series [5] (NK92 cells) was “significantly reduced”. Also, the “donor NK cell lysis of PANC-1 cells in 3D” value in series [5] (NK cells from two donors, normalized to cluster area) was “reduced”. Also, the “FAP inhibition in murine models” value in series [6] was “selectively and completely inhibits FAP”.
